US20120040914A1, “ENHANCING EFFECTIVENESS OF GLIAL CANCER THERAPIES” (priority 2010, published 2012)

Legend:
[1] = test system: A172 human glioblastoma cell line; assay: cells; conditions: A 172, read-out: reduction in cell viability (calcein fluorescence)
[2] = test system: putative mAR in A172 human glioblastoma cells; conditions: unlabeled DHT as displacer, relative to T-BSA incubated A172 cells
Description: The population histograms depict the frequency distribution of the cells labeled with a fluorescently tagged, BSA-conjugated testosterone (Testosterone-BSA-FITC, abbreviated as T-BSA), or T-BSA in the presence of unlabeled DHT, serving as the “displacer”. […] Also note that the x-axis is on a log scale.

hippocampal HT-22 cells = assay: glutamate-induced cytotoxicity, Calcein-am assay; assay type: cell-based
C6 glioma cells = assay: salinomycin sensitivity, cell viability by Calcein-am assay; assay type: cell-based; conditions: 10 microM TBSA, 48 hrs, leftward shift of the concentration response
Description: C6 glioma cells were treated with increasing concentrations of the cancer therapeutic, salinamycin, a drug with a high profile of selectivity for cancer stem cells. […] The data are presented as a percentage of cell viability seen in non-TBSA/salinamycin treated cells. The group labeled as Triton-X serves as our cell death-inducing control.

[3] = test system: A172 human glioblastoma cells; assay: sensitivity to ionizing radiation, Calcein-am assay; assay type: cell-based; conditions: total dose of 5 Gy at 6.3 Gy/min, 6 hrs after radiation
Description: Cell viability was measured using the Calcein-am assay following 6 hrs after the administration of the dose of ionizing radiation. The data are presented as a percentage of cell viability seen in the non-radiated (black bars) or radiated (checkered bars) in the absence of T-BSA.

[4] = test system: Temozolomide-resistant T98g human glioblastoma cells; assay: as above; assay type: cell-based

Cn1nnc2c(C(N)=O)ncn2c1=O [TMZ, Temozolomide] gave a cytotoxicity at 5000 µM [1] of ~35%.
C[C@]12CCC(=O)C[C@@H]1CC[C@@H]1[C@@H]2CC[C@]2(C)[C@@H](O)CC[C@@H]12 [DHT, Dihydrotestosterone] was tested, and the “displacement of Testosterone-BSA-FITC (T-BSA) binding, fluorescence intensity” value [2] was “clear leftward shift of fluorescence intensity”.
With “TBSA: BSA-conjugated testosterone, membrane impermeable androgen, ligand/activator of the membrane androgen receptor (mAR)” the “cell viability, by itself” value (hippocampal HT-22 cells; TBSA alone, Calcein-am assay) was “had no effect on cell viability”, the “effect on glutamate-induced cell death” value (hippocampal HT-22 cells; TBSA plus glutamate) was “protected against glutamate-induced cytotoxicity” and the “effect on sensitivity to salinamycin (concentration response of cell viability)” value (C6 glioma cells) was “increased the sensitivity of the cells to salinamycin”. The “sensitization to ionizing radiation (cell viability)” value (“sensitization to ionizing radiation” below) [3] was “enhanced the sensitivity of the A172 glioblastoma cells to the cytotoxic effects of ionizing radiation”, the “sensitization to ionizing radiation” value ([4]; 5 Gy, 100 nM-40 microM TBSA, 6 hr or 24 hr post radiation) was “ineffective at sensitizing the cells to ionizing radiation” and the “sensitization to ionizing radiation” value ([4]; 10 Gy) was “effective at sensitizing these cells to ionizing radiation”. The “lowest concentration at which the sensitizing effect was noted” value ([4]; 20 Gy) was 1 µM.
